# Test results: patent publication US20060069132A1, “Azolecarboxamide herbicides” (priority 2004, published 2006)
# Columns and labels:
# lambsquarters = experiment: Test C pre-/postemergence herbicide test; type: in vivo, Chenopodium album
# Outline: (§1)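 Visual injury scores run from 0 (no effect) to 100 (complete control), assessed relative to untreated controls 12 to 14 days after treatment in the greenhouse. Chemicals were formulated in a non-phytotoxic solvent mixture with surfactant and applied to soil after planting or to emerged plants at the 1- to 4-leaf stage.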
# barnyardgrass = experiment: Test C flooded paddy test; type: in vivo, Echinochloa crus-galli; conditions: for Plant response rating, Barnyardgrass: 500 g ai/ha, visual rating after 12 to 14 days
# Outline: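 Scoring by eye, 12–14 days post-treatment, greenhouse-held plants vs. controls; 0 no effect, 100 complete control. Sprayed at 1–4 leaves (2–18 cm); paddy barnyardgrass at 2 leaves, flooded.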
# velvetleaf = experiment: Test C pre-/postemergence herbicide test; type: in vivo, Abutilon theophrasti
# Outline: as §1
# rice = experiment: Test B pre-/postemergence herbicide test; type: in vivo, Oryza sativa; conditions: preemergence; for Plant response rating, Rice: 500 g ai/ha
# Outline: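 Visual rating, 0 (no effect) to 100 (complete control), versus untreated controls after 13–15 d in greenhouse. Pre- and postemergence applications (postemergence plants 2–18 cm, 1–4 leaves); flooded paddy arm at 2-leaf stage. Compounds in non-phytotoxic solvent plus surfactant.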
# [1] = test system: smallflower umbrella sedge; experiment: Test C flooded paddy test; type: in vivo, Cyperus difformis; conditions: for Plant response rating, Sedge, Umbrella: 500 g ai/ha, visual rating after 12 to 14 days
# morningglory = experiment: Test C pre-/postemergence herbicide test; type: in vivo, Ipomoea coccinea; set-up: key to Plant response rating, Morningglory: 0 = no effect, 100 = complete control
# Outline: as §1
# johnsongrass = experiment: Test C pre-/postemergence herbicide test; type: in vivo, Sorghum halepense
# Outline: as §1
# [2] = 62 g ai/ha, preemergence, scale 0 to 100
# [3] = 125 g ai/ha, scale 0 (no effect) to 100 (complete control), visual, 12 to 14 days, preemergence
# [4] = Preemergence, 500 g ai/ha, scale 0 to 100, 0 no effect, 100 complete control
# [5] = 62 g ai/ha, scale 0 to 100 (0 no effect, 100 complete control)
# [6] = 250 g ai/ha, scale of 0 to 100, 0 is no effect, 100 is complete control
# [7] = scale 0 to 100 (0 no effect, 100 complete control)
# [8] = 125 g ai/ha, scale 0 to 100 (0 no effect, 100 complete control)
# [9] = 250 g ai/ha, scale 0-100, preemergence
# [10] = 500 g ai/ha, scale 0 to 100 (0 no effect, 100 complete control), visual, 12 to 14 days, preemergence
# [11] = Postemergence, 500 g ai/ha, scale 0 to 100
# [12] = Postemergence, 250 g ai/ha, scale 0 to 100, 0 no effect, 100 complete control
# [13] = postemergence, 125 g ai/ha, scale 0 to 100
# [14] = postemergence, 62 g ai/ha, scale 0 to 100
structure (smiles),measurement,setting,value
CCc1nn(C(C)(C)C)cc1C(=O)Nc1cccc(C(C)=NO)c1 [Compound 188],"Plant response rating, Lambsquarters",lambsquarters; [2],95
same,"Plant response rating, Lambsquarters",lambsquarters; [3],100
same,Lambsquarters plant response rating,lambsquarters; [4],100
same,Barnyardgrass plant response rating,barnyardgrass; [5],35
same,Barnyardgrass plant response rating,"barnyardgrass; 125 g ai/ha, scale of 0 to 100, 0 is no effect, 100 is complete control",55
same,Barnyardgrass plant response rating,barnyardgrass; [6],75
same,"Plant response rating, Barnyardgrass",barnyardgrass; [7],85
same,"Plant response rating, Velvetleaf",velvetleaf; [2],0
same,"Plant response rating, Velvetleaf",velvetleaf; [3],0
same,Velvetleaf plant response rating,velvetleaf; [4],75
same,Rice plant response rating (0 to 100 scale),"rice; 125 g ai/ha, 0 = no effect, 100 = complete control",50
same,"Plant response rating, Rice","rice; visual rating 0-100, 0 no effect, 100 complete control",70
same,"Sedge, Umbrella plant response rating",[1]; [5],30
same,"Sedge, Umbrella plant response rating",[1]; [8],75
same,"Sedge, Umbrella plant response rating",[1]; [6],80
same,"Plant response rating, Sedge, Umbrella",[1]; [7],85
same,"Plant response rating, Morningglory",morningglory; [2],0
same,Morningglory plant response rating,morningglory; [4],75
same,"Plant response rating, Johnsongrass",johnsongrass; [2],0
same,"Plant response rating, Johnsongrass",johnsongrass; [3],20
same,Johnsongrass plant response rating,johnsongrass; [4],75
CCn1nc(C(C)(C)C)cc1C(=O)Nc1cccc(OC(F)(F)C(F)F)c1 [Compound 333],"Plant response rating, Lambsquarters",lambsquarters; [2],95
same,"Plant response rating, Lambsquarters",lambsquarters; [3],100
same,"Plant response rating, Lambsquarters",lambsquarters; [9],100
same,"Plant response rating, Lambsquarters",lambsquarters; [10],100
same,Lambsquarters plant response rating,lambsquarters; [11],100
same,"Plant response rating, Lambsquarters",lambsquarters; [12],80
same,"Plant response rating, Lambsquarters",lambsquarters; [13],80
same,"Plant response rating, Lambsquarters",lambsquarters; [14],60
same,Barnyardgrass plant response rating,barnyardgrass; [5],0
same,Barnyardgrass plant response rating,barnyardgrass; [8],0
same,Barnyardgrass plant response rating,barnyardgrass; [6],10
same,"Plant response rating, Barnyardgrass",barnyardgrass; [7],20
same,"Plant response rating, Velvetleaf",velvetleaf; [2],0
same,"Plant response rating, Velvetleaf",velvetleaf; [9],50
same,"Plant response rating, Velvetleaf",velvetleaf; [10],55
same,Velvetleaf plant response rating,velvetleaf; [11],80
same,"Plant response rating, Velvetleaf",velvetleaf; [12],50
same,"Plant response rating, Velvetleaf",velvetleaf; [13],50
same,"Plant response rating (0 to 100 scale), Rice","rice; 125 g ai/ha, 0 is no effect, 100 is complete control",0
same,"Plant response rating, Rice","rice; visual rating, 0 = no effect, 100 = complete control",0
same,"Sedge, Umbrella plant response rating","[1]; 62 g ai/ha, scale 0 to 100",0
same,"Sedge, Umbrella plant response rating",[1]; [8],15
same,"Sedge, Umbrella plant response rating",[1]; [6],30
same,"Plant response rating, Sedge, Umbrella",[1]; [7],80
same,"Plant response rating, Morningglory",morningglory; [2],0
same,"Plant response rating, Morningglory",morningglory; [3],0
same,"Plant response rating, Morningglory",morningglory; [9],0
same,"Plant response rating, Morningglory",morningglory; [10],10
same,Morningglory plant response rating,morningglory; [11],10
same,"Plant response rating, Morningglory",morningglory; [12],10
same,"Plant response rating, Morningglory",morningglory; [13],0
same,"Plant response rating, Morningglory",morningglory; [14],0
same,"Plant response rating, Johnsongrass",johnsongrass; [2],0
same,"Plant response rating, Johnsongrass",johnsongrass; [3],0
same,"Plant response rating, Johnsongrass",johnsongrass; [9],5
same,"Plant response rating, Johnsongrass",johnsongrass; [10],5
same,Johnsongrass plant response rating,johnsongrass; [11],0
same,"Plant response rating, Johnsongrass",johnsongrass; [12],0
same,"Plant response rating, Johnsongrass",johnsongrass; [13],0
same,"Plant response rating, Johnsongrass",johnsongrass; [14],0
